Among the data in the OligoGym collection are normalised inhibition (eCFP-eYFP dual reporter) values, retold here.

Oligonucleotides are written 5' to 3', each unit as a sugar letter and its base; * is a phosphorothioate linkage, no mark a phosphodiester; rarer units and linkages stand in square brackets, end groups in braces. Plain capitals give the bases only. d = 2'-deoxy (DNA); r = 2'-OH (RNA)

The data set concerns the target DENND5A. Kind of data set: reporter assay of Huesken 2005. As to conditions: siRNA. For orientation: A reporter such as luciferase makes a cellular process visible.
Note: test concentration or dose not given here.

Substance “sense rCrCrUrCrUrArCrCrArCrArUrGrCrArCrArArUdTdT / antisense rArUrUrGrUrGrCrArUrGrUrGrGrUrArGrArGrGdGdT” displayed a normalised inhibition (eCFP-eYFP dual reporter) of 68.3%.
In the case of “sense rUrGrUrUrUrGrCrArGrArUrUrArUrGrArGrGrCdTdT / antisense rGrCrCrUrCrArUrArArUrCrUrGrCrArArArCrAdTdC” it was 38.5%; in that of “sense rUrUrCrArUrUrGrArCrArArCrArArArArUrArAdTdT / antisense rUrUrArUrUrUrUrGrUrUrGrUrCrArArUrGrArAdAdG”, 97.8%.
For “sense rCrArUrGrUrCrGrGrArGrCrGrUrGrCrUrGrGrAdTdT / antisense rUrCrCrArGrCrArCrGrCrUrCrCrGrArCrArUrGdCdC” the value was 60.8%.
In the case of “sense rArArCrCrUrArUrUrArUrGrArGrArCrArUrUrAdTdT / antisense rUrArArUrGrUrCrUrCrArUrArArUrArGrGrUrUdTdG” it was 66.3%; in that of “sense rUrUrCrCrUrUrGrArUrUrCrGrUrGrUrGrCrUrGdTdT / antisense rCrArGrCrArCrArCrGrArArUrCrArArGrGrArAdTdT”, 22.1%.
For the substance “sense rCrArUrUrCrArGrArUrCrCrGrGrGrArArGrUrUdTdT / antisense rArArCrUrUrCrCrCrGrGrArUrCrUrGrArArUrGdTdT”, the normalised inhibition (eCFP-eYFP dual reporter) is 74.7%.
Take “sense rCrUrUrUrGrUrGrArUrCrUrCrCrUrGrGrArArAdTdT / antisense rUrUrUrCrCrArGrGrArGrArUrCrArCrArArArGdGdC”: the normalised inhibition (eCFP-eYFP dual reporter) is 65.8%.
For “sense rGrCrArCrUrUrCrCrArUrArArGrCrCrUrGrArGdTdT / antisense rCrUrCrArGrGrCrUrUrArUrGrGrArArGrUrGrCdTdT” the value was 78.7%.
In the case of “sense rUrGrArUrCrUrCrCrUrGrGrArArArGrGrArUrCdTdT / antisense rGrArUrCrCrUrUrUrCrCrArGrGrArGrArUrCrAdCdA” it was 44.1%.
For “sense rUrUrGrCrArUrUrCrCrUrArCrGrArGrCrUrUrCdTdT / antisense rGrArArGrCrUrCrGrUrArGrGrArArUrGrCrArAdAdG”, the normalised inhibition (eCFP-eYFP dual reporter) was found to be 50.8%.
In the case of “sense rUrUrUrCrArCrUrCrArGrArUrGrUrUrUrGrCrAdTdT / antisense rUrGrCrArArArCrArUrCrUrGrArGrUrGrArArAdCdG” it was 42.4%; in that of “sense rUrGrCrArArArArCrUrUrUrGrArUrArArArGrCdTdT / antisense rGrCrUrUrUrArUrCrArArArGrUrUrUrUrGrCrAdTdT”, 46%.
For “sense rUrCrCrCrCrUrUrUrGrCrArUrUrCrCrUrArCrGdTdT / antisense rCrGrUrArGrGrArArUrGrCrArArArGrGrGrGrAdGdC” the value was 44.7%; for “sense rArUrCrCrArArCrCrCrArGrCrCrArGrGrArUrAdTdT / antisense rUrArUrCrCrUrGrGrCrUrGrGrGrUrUrGrGrArUdGdA”, 51.8%; for “sense rGrArGrGrArUrGrGrCrUrCrUrCrGrGrArCrArUdTdT / antisense rArUrGrUrCrCrGrArGrArGrCrCrArUrCrCrUrCdCdC”, 55.9%.
For “sense rUrGrArArGrArGrGrUrGrArCrUrArGrCrArArGdTdT / antisense rCrUrUrGrCrUrArGrUrCrArCrCrUrCrUrUrCrAdTdA” the value was 68.6%; for “sense rCrUrCrArArGrArUrUrCrCrUrGrGrArGrArCrCdTdT / antisense rGrGrUrCrUrCrCrArGrGrArArUrCrUrUrGrArGdAdG”, 64.6%; for “sense rArGrArCrCrCrArGrGrCrUrGrArUrCrCrCrArGdTdT / antisense rCrUrGrGrGrArUrCrArGrCrCrUrGrGrGrUrCrUdTdG”, 75.1%.
“sense rArUrUrGrCrCrArGrCrCrUrUrUrGrUrGrArUrCdTdT / antisense rGrArUrCrArCrArArArGrGrCrUrGrGrCrArArUdCdA” displayed a normalised inhibition (eCFP-eYFP dual reporter) of 48.5%.
On to “sense rArArUrGrGrCrArUrUrGrUrGrArArGrCrArCrUdTdT / antisense rArGrUrGrCrUrUrCrArCrArArUrGrCrCrArUrUdGdA”, for which the normalised inhibition (eCFP-eYFP dual reporter) came to 60.5%.
As to “sense rArCrCrUrGrCrCrCrUrUrCrCrUrCrUrCrArArGdTdT / antisense rCrUrUrGrArGrArGrGrArArGrGrGrCrArGrGrUdAdG”, the normalised inhibition (eCFP-eYFP dual reporter) stood at 53.2%.
For “sense rCrArGrCrGrCrUrUrCrArArCrUrCrCrUrArUrGdTdT / antisense rCrArUrArGrGrArGrUrUrGrArArGrCrGrCrUrGdCdA” the value was 49.9%; for “sense rUrUrGrArCrCrArArGrArUrGrCrArGrUrArGrGdTdT / antisense rCrCrUrArCrUrGrCrArUrCrUrUrGrGrUrCrArAdAdG”, 57.9%.
“sense rGrGrArCrUrGrGrArCrArCrGrGrArGrArCrCrGdTdT / antisense rCrGrGrUrCrUrCrCrGrUrGrUrCrCrArGrUrCrCdGdC”: the normalised inhibition (eCFP-eYFP dual reporter) came to 60.4%.
“sense rGrArUrGrGrUrGrArArGrArCrArCrUrCrCrUrGdTdT / antisense rCrArGrGrArGrUrGrUrCrUrUrCrArCrCrArUrCdCdT” gave a normalised inhibition (eCFP-eYFP dual reporter) of 82.9%.
As to “sense rArArArUrCrArGrCrCrUrUrArUrGrGrUrCrCrCdTdT / antisense rGrGrGrArCrCrArUrArArGrGrCrUrGrArUrUrUdCdC”, the normalised inhibition (eCFP-eYFP dual reporter) came to 41.9%.
In the case of “sense rCrUrGrUrCrGrGrCrArUrUrArUrGrCrCrArGrUdTdT / antisense rArCrUrGrGrCrArUrArArUrGrCrCrGrArCrArGdCdT” it was 73%; in that of “sense rCrCrArGrCrCrUrUrUrGrUrGrArUrCrUrCrCrUdTdT / antisense rArGrGrArGrArUrCrArCrArArArGrGrCrUrGrGdCdA”, 47.1%; in that of “sense rCrUrArUrCrArCrCrUrCrCrUrGrUrCrUrUrUrCdTdT / antisense rGrArArArGrArCrArGrGrArGrGrUrGrArUrArGdAdG”, 63.1%.
In the case of “sense rCrCrUrUrArUrGrGrUrCrCrCrArCrCrUrGrUrUdTdT / antisense rArArCrArGrGrUrGrGrGrArCrCrArUrArArGrGdCdT” it was 62.5%; in that of “sense rGrArCrCrCrArGrArUrGrUrUrUrGrCrArUrCrUdTdT / antisense rArGrArUrGrCrArArArCrArUrCrUrGrGrGrUrCdTdC”, 71.9%.
In the case of “sense rArGrGrCrUrGrArUrCrCrCrArGrGrGrArGrCrCdTdT / antisense rGrGrCrUrCrCrCrUrGrGrGrArUrCrArGrCrCrUdGdG” it was 57.4%; in that of “sense rArUrUrGrArCrArArCrCrArCrUrUrCrArUrUrGdTdT / antisense rCrArArUrGrArArGrUrGrGrUrUrGrUrCrArArUdGdT”, 48.7%.
“sense rCrArGrGrArUrArUrGrArGrGrCrArCrArUrCrCdTdT / antisense rGrGrArUrGrUrGrCrCrUrCrArUrArUrCrCrUrGdAdA” registered a normalised inhibition (eCFP-eYFP dual reporter) of 46.7%.
Substance “sense rArGrGrGrArUrGrGrUrGrCrCrArGrCrCrCrUrUdTdT / antisense rArArGrGrGrCrUrGrGrCrArCrCrArUrCrCrCrUdGdG” displayed a normalised inhibition (eCFP-eYFP dual reporter) of 83.7%.
In the case of “sense rGrArArUrGrGrGrArArCrArUrUrGrCrUrGrGrCdTdT / antisense rGrCrCrArGrCrArArUrGrUrUrCrCrCrArUrUrCdCdT” it was 45.3%.
In the case of “sense rGrArCrUrGrArArGrGrArGrArArArArUrUrUrUdTdT / antisense rArArArArUrUrUrUrCrUrCrCrUrUrCrArGrUrCdGdT” it was 90.8%; in that of “sense rGrGrUrGrCrCrGrCrUrCrCrCrArCrCrUrCrCrUdTdT / antisense rArGrGrArGrGrUrGrGrGrArGrCrGrGrCrArCrCdTdC”, 39%; in that of “sense rArCrArUrGrArArGrArUrUrGrGrArCrArArGrGdTdT / antisense rCrCrUrUrGrUrCrCrArArUrCrUrUrCrArUrGrUdCdA”, 70.5%.
Turning to “sense rGrGrGrArArArUrCrArGrCrCrUrUrArUrGrGrUdTdT / antisense rArCrCrArUrArArGrGrCrUrGrArUrUrUrCrCrCdCdT”, the normalised inhibition (eCFP-eYFP dual reporter) was 61.1%.
For “sense rUrCrUrGrArUrGrUrArCrUrUrUrCrCrArCrUrGdTdT / antisense rCrArGrUrGrGrArArArGrUrArCrArUrCrArGrAdCdT”, the normalised inhibition (eCFP-eYFP dual reporter) came out at 47.9%.
In the case of “sense rUrGrGrArUrGrArCrCrGrGrUrCrArArArGrCrUdTdT / antisense rArGrCrUrUrUrGrArCrCrGrGrUrCrArUrCrCrAdGdG” it was 67.7%; in that of “sense rArArUrGrGrGrArArCrArUrUrGrCrUrGrGrCrUdTdT / antisense rArGrCrCrArGrCrArArUrGrUrUrCrCrCrArUrUdCdC”, 43.6%.
For “sense rCrArGrArUrGrUrUrUrGrCrArUrCrUrUrUrCrAdTdT / antisense rUrGrArArArGrArUrGrCrArArArCrArUrCrUrGdGdG” the value was 75.3%; for “sense rGrCrUrGrArArGrArGrGrCrUrGrCrGrGrGrCrCdTdT / antisense rGrGrCrCrCrGrCrArGrCrCrUrCrUrUrCrArGrCdTdT”, 37.4%; for “sense rArCrGrCrUrGrUrUrGrCrUrCrUrGrUrGrGrArGdTdT / antisense rCrUrCrCrArCrArGrArGrCrArArCrArGrCrGrUdCdA”, 60.7%.
For “sense rCrCrCrCrGrCrCrGrCrUrGrCrArGrCrArGrUrCdTdT / antisense rGrArCrUrGrCrUrGrCrArGrCrGrGrCrGrGrGrGdTdC” the value was 61.8%; for “sense rArCrCrCrCrArGrCrArGrCrArArUrArArGrGrAdTdT / antisense rUrCrCrUrUrArUrUrGrCrUrGrCrUrGrGrGrGrUdCdT”, 64.9%.
